Laboratory results as given in PubChem BioAssay (NCI).
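In this assay, cells in 96-well plates receive the compound at five concentrations for 48 hours. Endpoints are linearly interpolated between the surrounding concentrations. TGI is the concentration that stops growth completely.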

What was measured:
Experiment in all cases: NCI tumour cell line growth inhibition, 48 h
[1] = test system: SNB-19 CNS
[2] = test system: HOP-62 NSCLC
[3] = test system: T-47D breast
[4] = test system: NCI-H460 lung
[5] = test system: SR leukemia
[6] = test system: ACHN renal
[7] = test system: MDA-MB-435
[8] = test system: MCF7 breast
[9] = test system: MDA-N
[10] = test system: 786-0 renal
[11] = test system: NCI-H226 lung
[12] = test system: SK-MEL-5 melanoma
[13] = test system: OVCAR-4 ovarian
[14] = test system: HT29 colon
[15] = test system: HCT-15 colon
[16] = test system: UO-31 renal
[17] = test system: SN12C renal
[18] = test system: EKVX NSCLC
[19] = test system: SNB-75 CNS
[20] = test system: SK-MEL-2 melanoma
[21] = test system: SW-620 colon
[22] = test system: OVCAR-5 ovarian
[23] = test system: NCI-H23 lung
[24] = test system: HS 578T breast
[25] = test system: HCT-116 colon
[26] = test system: KM12 colon
[27] = test system: A549 NSCLC
[28] = test system: MDA-MB-231 breast
[29] = test system: A498 renal
[30] = test system: HL-60(TB) leukemia
[31] = test system: CCRF-CEM leukemia
[32] = test system: RPMI-8226 leukemia
[33] = test system: NCI-H522 lung
[34] = test system: PC-3 prostate
[35] = test system: NCI/ADR-RES ovarian
[36] = test system: DU-145 prostate
[37] = test system: SK-OV-3 ovarian
[38] = test system: CAKI-1 renal
[39] = test system: TK-10 renal
[40] = test system: SF-295 CNS
[41] = test system: M14 melanoma
[42] = test system: UACC-62 melanoma
[43] = test system: K-562 leukemia
[44] = test system: OVCAR-3 ovarian
[45] = test system: SF-268 CNS
[46] = test system: SF-539 CNS
[47] = test system: U251 CNS
[48] = test system: IGROV1 ovarian
[49] = test system: MOLT-4 leukemia
[50] = test system: SK-MEL-28 melanoma
[51] = test system: LOX IMVI melanoma
[52] = test system: COLO 205 colon
[53] = test system: HCC-2998 colon
[54] = test system: UACC-257 melanoma
[55] = test system: MALME-3M melanoma
[56] = test system: RXF 393 renal
[57] = test system: OVCAR-8 ovarian
[58] = test system: BT-549 breast
[59] = test system: HOP-92 NSCLC

Measured: TGI

CC(C)NC(=O)OCCS(=O)c1c(Cl)c(Cl)nn1C (centres undefined)
43.8 µM: [15]
67.7 µM: [42]
72.6 µM: [10]
39.4 µM: [41]
41.1 µM: [33]
70.7 µM: [28]
44 µM: [52]
56.3 µM: [7]
not listed: [53] | [54] | [55] | [56] | [57] | [58] | [59]
> 100 µM: all other assays above

CC1(C)Oc2ccc3c(=O)cc(-c4ccc(F)cc4)oc3c2C1C(=O)O (centres undefined)
54.6 µM: [38]
not listed: [1] | [4] | [6] | [13] | [15] | [16] | [19] | [21] | [26] | [30] | [32] | [50] | [51] | [58] | [59]
> 100 µM: all other assays above

CCOc1cc(NC(C)=O)ccc1C(=O)NN1C(=O)/C(=C/c2cc(OC)c(OC)c(OC)c2)N=C1c1ccccc1
98.2 µM: [26]
69.2 µM: [58]
not listed: [2] | [3] | [19] | [20] | [28] | [32] | [34] | [36] | [39] | [47] | [56]
> 100 µM: all other assays above

O=c1oc2ccccc2n1CCN1CCCCC1
not listed: [3] | [13] | [16] | [27] | [33] | [53] | [59]
> 100 µM: all other assays above

CC1(C)N=C(N)N=C(N)N1c1cccc(OCCOc2ccc([N+](=O)[O-])cc2)c1
not listed: [3] | [11] | [16] | [19] | [35] | [42] | [53]
> 100 µM: all other assays above

O=C(CC(C(=O)c1ccoc1)c1ccco1)c1ccco1 (centres undefined)
not listed: [1] | [20] | [34] | [55] | [58]
> 100 µM: all other assays above

Cc1ccc(C(O)c2cnc(C)n2Cc2ccccc2)cc1 (centres undefined)
not listed: [3] | [31] | [49]
> 100 µM: all other assays above

COC(=O)c1c(C)cccc1CC1Cc2c(C)cccc2C1=O (centres undefined)
90.2 µM: [31]
73.7 µM: [29]
70.9 µM: [59]
64.2 µM: [35]
65.1 µM: [7]
79.1 µM: [49]
73.2 µM: [26]
71 µM: [16]
45.5 µM: [30]
89.9 µM: [42]
37.5 µM: [12]
57.8 µM: [33]
95.8 µM: [11]
33.6 µM: [51]
72.9 µM: [54]
99.5 µM: [23]
37.9 µM: [20]
48.3 µM: [52]
not listed: [5] | [8] | [32]
> 100 µM: all other assays above
